In paper PMC3695085, “Screening and Improving the Recombinant Nitrilases and Application in Biotransformation of Iminodiacetonitrile to Iminodiacetic Acid” (PLoS ONE, 2013):

Assays:
Format in all cases: biochemical
AcN = molecular target: T1, AcN (Acidovorax facilis, UniProt Q1W2L4); assay: initial velocity, HPLC, Michaelis-Menten fit; details: pH 7.5, 50 mM potassium phosphate, 35 °C; unit printed as mM^−1 (mM meant); 10.5–262.5 mM substrate
T1 construct: gene nitA; full-length, pET-28b(+), His-tag (Ni-NTA), E. coli BL21(DE3); synthesised gene
Description: initial velocity, HPLC, Michaelis-Menten fit on AcN

TpN = molecular target: T2, TpN (Thalassiosira pseudonana, UniProt B8C1M9); assay: GC-FID of ADPN consumed; details: 50 mM ADPN, pH 7.5, 50 mM potassium phosphate, 35 °C, 30 min
T2 construct: gene NIT2; full-length, pET-28b(+), His-tag (Ni-NTA), E. coli BL21(DE3)

RjN = molecular target: T3, RjN (Rhodococcus rhodochrous, UniProt Q03217); assay: GC-FID of ADPN consumed; details: 50 mM ADPN, pH 7.5, 50 mM potassium phosphate, 35 °C, 30 min
T3 construct: gene nitA; full-length, pET-28b(+), His-tag (Ni-NTA), E. coli BL21(DE3)
T3 sequence (Q03217 1-366 limits assumed): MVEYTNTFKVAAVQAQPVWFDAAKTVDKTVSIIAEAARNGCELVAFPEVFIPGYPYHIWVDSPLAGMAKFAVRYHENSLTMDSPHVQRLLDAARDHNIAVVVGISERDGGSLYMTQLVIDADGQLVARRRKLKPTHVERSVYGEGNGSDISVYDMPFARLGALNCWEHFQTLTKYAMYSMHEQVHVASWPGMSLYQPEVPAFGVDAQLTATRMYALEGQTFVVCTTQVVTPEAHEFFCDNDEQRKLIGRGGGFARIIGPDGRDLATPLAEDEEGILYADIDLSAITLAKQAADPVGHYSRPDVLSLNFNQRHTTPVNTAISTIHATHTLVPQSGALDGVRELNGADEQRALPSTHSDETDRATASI

ApN = molecular target: T4, ApN (Arthrobacter pascens, UniProt E1CJF8); assay: GC-FID of ADPN consumed; details: 50 mM ADPN, pH 7.5, 50 mM potassium phosphate, 35 °C, 30 min
T4 construct: gene inhB; full-length, pET-28b(+), His-tag (Ni-NTA), E. coli BL21(DE3)
T4 sequence (E1CJF8 1-359): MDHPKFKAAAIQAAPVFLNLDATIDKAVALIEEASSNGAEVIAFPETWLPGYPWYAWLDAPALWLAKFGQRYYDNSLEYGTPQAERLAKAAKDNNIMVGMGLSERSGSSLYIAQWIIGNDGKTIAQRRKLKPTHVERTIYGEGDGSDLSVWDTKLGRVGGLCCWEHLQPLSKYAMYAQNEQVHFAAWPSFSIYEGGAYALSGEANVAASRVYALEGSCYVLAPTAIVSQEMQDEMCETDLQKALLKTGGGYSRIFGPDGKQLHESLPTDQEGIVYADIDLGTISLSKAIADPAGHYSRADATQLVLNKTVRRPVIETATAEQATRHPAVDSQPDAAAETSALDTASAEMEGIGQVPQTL

GpN = molecular target: T5, GpN (Aeribacillus pallidus, UniProt Q0PIV8); assay: GC-FID of ADPN consumed; details: pH […] potassium phosphate, […] °C, […] min
T5 construct: full-length, pET-28b(+), His-tag (Ni-NTA), E. coli BL21(DE3)
T5 sequence (Q0PIV8 1-323): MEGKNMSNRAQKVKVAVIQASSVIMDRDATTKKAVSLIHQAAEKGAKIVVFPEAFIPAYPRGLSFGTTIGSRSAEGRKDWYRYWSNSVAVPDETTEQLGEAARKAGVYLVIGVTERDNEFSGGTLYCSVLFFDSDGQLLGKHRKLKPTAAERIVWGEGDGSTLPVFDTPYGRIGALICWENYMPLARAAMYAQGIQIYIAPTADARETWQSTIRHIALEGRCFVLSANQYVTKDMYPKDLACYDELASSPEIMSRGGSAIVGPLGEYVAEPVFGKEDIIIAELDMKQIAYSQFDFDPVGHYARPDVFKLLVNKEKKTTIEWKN

Row | Structure (SMILES) | Km mM^-1 (AcN) [mM⁻¹] | GC-FID of ADPN consumed (TpN) | GC-FID of ADPN consumed (RjN) | GC-FID of ADPN consumed (ApN) | GC-FID of ADPN consumed (GpN)
1 | N#CCNCC#N [iminodiacetonitrile] | 0.76 ± 0.02 |  |  |  | 
2 | N#CCCCCC#N [adiponitrile] |  | All nitrilases demonstrated ADPN hydrolysis activity | All nitrilases demonstrated ADPN hydrolysis activity | All nitrilases demonstrated ADPN hydrolysis activity | All nitrilases demonstrated ADPN hydrolysis activity
